pIC50: −log10 of the molar value.
The compounds below were run against T1, full length active recombinant SYK enzyme (Homo sapiens, UniProt P43405) (assay: Inhibition of Syk tyrosine phosphorylation activity (LANCE TR-FRET kinase assay)).
T1 construct: full length active recombinant SYK enzyme (Millipore, Calif.); purchased Millipore
Assay type: biochemical
Excerpt: This example illustrates methods for evaluating the compounds of the invention, along with results obtained for such assays. The in vitro and in vivo human Syk activities of the inventive compounds can be determined by various procedures known in the art, such as a test for their ability to inhibit the activity of human plasma Syk. […] The IC50 value is the concentration (in nM) of the compound required to provide 50% inhibition of human Syk proteolytic activity.
Potency of candidate molecules for inhibiting Syk tyrosine phosphorylation activity is assessed by measuring the ability of a test compound to inhibit Syk-mediated tyrosine phosphorylation of a Syk-specific substrate.
SYK tyrosine phosphorylation activity is measured using the LANCE™ Technology developed by Perkin Elmer Life and Analytical Sciences (Boston, Mass.). LANCE™ refers to homogeneous time resolved fluorometry applications using techniques such as time-resolved fluorescence resonance energy transfer assay (TR-FRET) (see generally for procedures in Perkin Elmer Application Note—How to Optimize a Tyrosine Kinase Assay Using Time Resolved Fluorescence-Based LANCE Detection, wwww.perkinelmer.com/lifesciences). The assay principle involves detection of a phosphorylated substrate using energy transfer from a phosphospecific europium-labeled antibody to streptavidin-allophycocyanin as an acceptor.
To test the ability of candidate molecules to inhibit SYK tyrosine phosphorylation activity, molecules are reconstituted in 30% DMSO and serially diluted 1:3 with the final dilution containing DMSO in the absence of the candidate molecule. The final DMSO concentration in the assay is 3%. Kinase assays are performed as a two part reaction. The first reaction is a kinase reaction and which comprises of a candidate molecule, full length active recombinant SYK enzyme (Millipore, Calif.) and biotin-labeled SYK-specific substrate biotin-[…]-OH. The second reaction involves termination of the kinase reaction and the simultaneous addition of the detection reagents-europium-labeled anti-phosphotyrosine reagent (Eu-W1024-PY100, Perkin Elmer, Boston, Mass.) and Streptavidin-Allophycocyanin detection reagent (SA-APC, Prozyme, Calif.). The kinase reaction is performed in a black U-bottom 96-well microtitre plate. The final reaction volume is 50 μL and contains a final concentration of 1 nM active SYK enzyme, 550 nM SYK-substrate, and 100 μM ATP diluted in a buffer containing 50 mM Tris pH 7.5, 5 mM MgCl2, and 1 mM DTT. The reaction is allowed to proceed for 1 hour at room temperature. The quench buffer contains 100 mM Tris pH 7.5, 300 mM NaCl2, 20 mM EDTA, 0.02% Brij35, and 0.5% BSA. The detection reagents are added to the reaction mixture at the following dilutions-1:500 for Eu-W1024-PY100 and 1:250 for SA-APC. The kinase reaction is terminated by the addition of 50 μL quench buffer containing the detection reagents. The detection is allowed to proceed for 1 hr at room temperature. Detection of the phosphorlated substrate in the absence and presence of inhibitors is measured in the TR-FRET instrument, Analyst HT (Molecular Probes, Sunnyvale, Calif.) and the condition for measurements are set up using CriterionHost Release 2.0 (Molecular Probes, Sunnyvale, Calif.). The settings used are a follows: excitation 360 nm, emission 665-7.5 nm, beam splitter 350 nm 50/50, flash 100 pulses, delay 60 us, integration 400 us, z-height 2 mm. Inhibition of SYK-tyrosine kinase activity is calculated as the maximum response observed in the presence of inhibitor, compared to that in the absence of inhibitor. IC50s were derived by non-linear regression analysis.

| pIC50 | Compound |
| --- | --- |
| 7.00 to 8.00 | COc1nc(N[C@@H](C(N)=O)C(C)C)nc(Nc2cc(C)cc(C)c2)c1C(N)=O [Example 1, (R)-2-(1-amino-3-methyl-1-oxobutan-2-ylamino)-4-(3,5-dimethylphenylamino)-6-methoxypyrimidine-5-carboxamide] |
| 8.00 to 9.00 | Cc1cc(C)cc(Nc2nc(N[C@@H](C(N)=O)C(C)C)[nH]c(=O)c2C(N)=O)c1 [Example 2, (R)-2-(1-amino-3-methyl-1-oxobutan-2-ylamino)-4-(3,5-dimethylphenylamino)-6-oxo-1,6-dihydropyrimidine-5-carboxamide] |
| 7.00 to 8.00 | COc1nc(N[C@@H]2CCCC[C@@H]2N)nc(Nc2cccc(-n3nccn3)c2)c1C(N)=O [Example 3, 2-((1R,2S)-2-aminocyclohexylamino)-4-(3-(2H-1,2,3-triazol-2-yl)phenylamino)-6-methoxypyrimidine-5-carboxamide] |
| 6.00 to 7.00 | CCOc1nc(N[C@@H](C(N)=O)C(C)C)nc(Nc2cc(C)cc(C)c2)c1C(N)=O [Example 4, (R)-2-(1-amino-3-methyl-1-oxobutan-2-ylamino)-4-(3,5-dimethylphenylamino)-6-ethoxypyrimidine-5-carboxamide] |
| 8.00 to 9.00 | NC(=O)c1c(Nc2cccc(-n3nccn3)c2)nc(N[C@@H]2CCCC[C@@H]2N)[nH]c1=O [Example 5] |
| 8.00 to 9.00 | CC(C)[C@@H](Nc1nc(Nc2cccc(-n3nccn3)c2)c(C(N)=O)c(=O)[nH]1)C(N)=O [Example 6, (R)-4-(3-(2H-1,2,3-triazol-2-yl)phenylamino)-2-(1-amino-3-methyl-1-oxobutan-2-ylamino)-6-oxo-1,6-dihydropyrimidine-5-carboxamide] |
| 7.00 to 8.00 | CC(C)C[C@@H](Nc1nc(Nc2cccc(-n3nccn3)c2)c(C(N)=O)c(=O)[nH]1)C(N)=O [Example 7, (R)-4-(3-(2H-1,2,3-triazol-2-yl)phenylamino)-2-(1-amino-4-methyl-1-oxopentan-2-ylamino)-6-oxo-1,6-dihydropyrimidine-5-carboxamide] |
| 7.00 to 8.00 | CC[C@@H](Nc1nc(Nc2cccc(-n3nccn3)c2)c(C(N)=O)c(=O)[nH]1)C(N)=O [Example 8, (R)-4-(3-(2H-1,2,3-triazol-2-yl)phenylamino)-2-(1-amino-1-oxobutan-2-ylamino)-6-oxo-1,6-dihydropyrimidine-5-carboxamide] |
| 8.00 to 9.00 | Cc1cccc(Nc2nc(N[C@H](CC(C)C)C(N)=O)[nH]c(=O)c2C(N)=O)c1 [Example 9, (R)-2-(1-amino-4-methyl-1-oxopentan-2-ylamino)-6-oxo-4-(m-tolylamino)-1,6-dihydropyrimidine-5-carboxamide] |
| 8.00 to 9.00 | Cc1cccc(Nc2nc(N[C@@H](C(N)=O)C(C)C)[nH]c(=O)c2C(N)=O)c1 [Example 10, (R)-2-(1-amino-3-methyl-1-oxobutan-2-ylamino)-6-oxo-4-(m-tolylamino)-1,6-dihydropyrimidine-5-carboxamide] |
| 8.00 to 9.00 | CC[C@@H](Nc1nc(Nc2cccc(C)c2)c(C(N)=O)c(=O)[nH]1)C(N)=O [Example 11, (R)-2-(1-amino-1-oxobutan-2-ylamino)-6-oxo-4-(m-tolylamino)-1,6-dihydropyrimidine-5-carboxamide] |
| 8.00 to 9.00 | Cc1cc(C)cc(Nc2nc(N[C@@H](CN)C(C)C)[nH]c(=O)c2C(N)=O)c1 [Example 12, (R)-2-(1-amino-3-methylbutan-2-ylamino)-4-(3,5-dimethylphenylamino)-6-oxo-1,6-dihydropyrimidine-5-carboxamide] |
| > 9.00 | CC(C)C[C@@H](Nc1nc(Nc2ccc3ncccc3c2)c(C(N)=O)c(=O)[nH]1)C(N)=O [Example 13, (R)-2-(1-amino-4-methyl-1-oxopentan-2-ylamino)-6-oxo-4-(quinolin-6-ylamino)-1,6-dihydropyrimidine-5-carboxamide] |
| 7.00 to 8.00 | CNCCNc1nc(Nc2cccc(C)c2)c(C(N)=O)c(=O)[nH]1 [Example 14] |
| 7.00 to 8.00 | COc1nc(N[C@@H](C(N)=O)C(C)C)nc(Nc2ccc3ncccc3c2)c1C(N)=O [Example 15, (R)-2-(1-amino-3-methyl-1-oxobutan-2-ylamino)-4-methoxy-6-(quinolin-6-ylamino)pyrimidine-5-carboxamide] |
| 7.00 to 8.00 | CC[C@@H](Nc1nc(Nc2ccc3ncccc3c2)c(C(N)=O)c(OC)n1)C(N)=O [Example 16, (R)-2-(1-amino-1-oxobutan-2-ylamino)-4-methoxy-6-(quinolin-6-ylamino)pyrimidine-5-carboxamide] |
| 7.00 to 8.00 | CC[C@@H](Nc1nc(Nc2ccc3c(ccc[n+]3[O-])c2)c(C(N)=O)c(OC)n1)C(N)=O [Example 17, (R)-6-(2-(1-amino-1-oxobutan-2-ylamino)-5-carbamoyl-6-methoxypyrimidin-4-ylamino)quinoline 1-oxide] |
| 8.00 to 9.00 | CC(C)C[C@@H](Nc1nc(Nc2ccc(-n3cccn3)cc2)c(C(N)=O)c(=O)[nH]1)C(N)=O [Example 18] |
| 8.00 to 9.00 | CC(C)[C@@H](Nc1nc(Nc2ccc(-n3cccn3)cc2)c(C(N)=O)c(=O)[nH]1)C(N)=O [Example 19] |
| 8.00 to 9.00 | CC(C)[C@@H](Nc1nc(Nc2ccc3ncccc3c2)c(C(N)=O)c(=O)[nH]1)C(N)=O [Example 20, (R)-2-(1-amino-3-methyl-1-oxobutan-2-ylamino)-6-oxo-4-(quinolin-6-ylamino)-1,6-dihydropyrimidine-5-carboxamide] |
| > 9.00 | CC[C@@H](Nc1nc(Nc2ccc3ncccc3c2)c(C(N)=O)c(=O)[nH]1)C(N)=O [Example 21, (R)-2-(1-amino-1-oxobutan-2-ylamino)-6-oxo-4-(quinolin-6-ylamino)-1,6-dihydropyrimidine-5-carboxamide] |
| 8.00 to 9.00 | CC(C)[C@H](CN)Nc1nc(Nc2cccc(-n3nccn3)c2)c(C(N)=O)c(=O)[nH]1 [Example 22, (R)-4-(3-(2H-1,2,3-triazol-2-yl)phenylamino)-2-(1-amino-3-methylbutan-2-ylamino)-6-oxo-1,6-dihydropyrimidine-5-carboxamide] |
| 7.00 to 8.00 | CNCCNc1nc(Nc2cccc(-n3nccn3)c2)c(C(N)=O)c(=O)[nH]1 [Example 23, 4-(3-(2H-1,2,3-triazol-2-yl)phenylamino)-2-(2-(methylamino)ethylamino)-6-oxo-1,6-dihydropyrimidine-5-carboxamide] |
| 8.00 to 9.00 | CC[C@@H](Nc1nc(Nc2ccc(-n3cccn3)cc2)c(C(N)=O)c(=O)[nH]1)C(N)=O [Example 24] |
| > 9.00 | CC(C)C[C@@H](Nc1nc(Nc2ccc3[nH]ncc3c2)c(C(N)=O)c(=O)[nH]1)C(N)=O [Example 25, (R)-4-(1H-indazol-5-ylamino)-2-(1-amino-4-methyl-1-oxopentan-2-ylamino)-6-oxo-1,6-dihydropyrimidine-5-carboxamide] |
| > 9.00 | CC(C)[C@@H](Nc1nc(Nc2ccc3[nH]ncc3c2)c(C(N)=O)c(=O)[nH]1)C(N)=O [Example 26, (R)-4-(1H-indazol-5-ylamino)-2-(1-amino-3-methyl-1-oxobutan-2-ylamino)-6-oxo-1,6-dihydropyrimidine-5-carboxamide] |
| 8.00 to 9.00 | CC(C)C[C@@H](Nc1nc(Nc2cccc(-c3ncccn3)c2)c(C(N)=O)c(=O)[nH]1)C(N)=O [Example 27, (R)-2-(1-amino-4-methyl-1-oxopentan-2-ylamino)-6-oxo-4-(3-(pyrimidin-2-yl)phenylamino)-1,6-dihydropyrimidine-5-carboxamide] |

— patent US20130317029A1 (PORTOLA PHARMACEUTICALS, INC., priority 2010, published 2013)
